Read-outs that look alike come from different tables or passages of the source.

For experiment [1], the system named is blood glucose level. In words: Hypoglycemic activity in obese diabetic mice (Table 1). Type of experiment: in vivo, male viable yellow obese-diabetic mice. To be noted: for response vs control in vivo at 50 mg/kg / response vs control in vivo at 10 mg/kg / response vs control in vivo at 25 mg/kg: Mus musculus, ip, intraperitoneal; for ability to lower blood glucose levels in mammals: compared to structurally similar compounds known in the art, in words. The gist of the method:
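Male viable yellow obese-diabetic mice, six per group, dosed intraperitoneally once with compound in saline containing 2% Emulphor. Blood glucose measured by glucose oxidase before dosing and at 2 and 4 h. Values are the 2 h and 4 h glucose as % of pre-dose level.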

In experiment [2] the test system is blood glucose level. As to the kind of experiment: Hypoglycemic activity in obese diabetic Zucker rats (Table 3). The following applies: oral. Type of experiment: in vivo, obese diabetic Zucker rat (Zucker Diabetic Fatty Rat). As to the method: Male Sprague Dawley rats (Charles River Laboratories) weighing 175-200 g were used in this test system. […] The desired dose level of each test formulation was administered to four rats by oral […] at the beginning of the experiment. Blood glucose levels were determined immediately before the first dose and at 3 and 5 hours thereafter by an enzymatic procedure employing glucose oxidase and peroxidase coupled with a chromogenic oxygen acceptor. A mean was taken of the 4 values obtained before the first dose and at the 3 and 5 hour intervals.
The procedure used in this test system is the same as that described for the normal fed rat test system, above. The format of Table 3 is the same as that used in Table 2.

The subject of experiment [3] is blood glucose level. As to the kind of experiment: Hypoglycemic activity in normal fed rats (Table 2). The following applies: Rattus norvegicus, oral. Type of experiment: in vivo, male Sprague Dawley rats. The gist of the method: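 Test formulations given by oral gavage to four normal fed rats at the chosen dose. Blood glucose measured just before dosing and at 3 and 5 h by glucose oxidase/peroxidase enzymatic method with chromogenic oxygen acceptor. Means of the 4 values taken at each time.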

The target in experiment [4] is T1, Human liver cathepsin D (Homo sapiens, UniProt P07339).
T1 construct: purchased Athens Research and Technology, Athens, Ga; host or cells: human liver
T1 sequence (P07339 169-412 limits assumed): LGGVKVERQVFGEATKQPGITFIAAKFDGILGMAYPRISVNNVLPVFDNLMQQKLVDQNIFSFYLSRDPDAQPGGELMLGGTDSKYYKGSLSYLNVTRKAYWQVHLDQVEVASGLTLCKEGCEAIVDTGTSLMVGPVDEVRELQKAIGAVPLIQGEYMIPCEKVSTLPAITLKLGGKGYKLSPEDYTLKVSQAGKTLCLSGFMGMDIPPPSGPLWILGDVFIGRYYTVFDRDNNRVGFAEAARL
T1 sequence (P07339 65-161 limits assumed): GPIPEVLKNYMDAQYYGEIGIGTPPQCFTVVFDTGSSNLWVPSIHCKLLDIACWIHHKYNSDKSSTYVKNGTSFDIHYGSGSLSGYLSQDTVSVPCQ
In words: Cathepsin D inhibition, fluorometric assay (Tables 5 and 6). To be noted: for inhibition at 4.15 µg/mL (stock): Compound Stock Concentration 4.15 μg/ml. Type of experiment: biochemical. The method in brief: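 Human liver cathepsin D at 500 ng/mL in 200 mM NaOAc pH 4.5, 150 mM NaCl, incubated 30 minutes at 37° C. Reaction stopped with microsomal leucine aminopeptidase (pH 8.0), which over two hours at 37° C releases AMC from cleavage products for fluorometric reading; aminopeptidase inhibition checked with Leu-pNA.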

The mark [5] stands for this setting: 2 h, 2 hrs, read-out: Percent of Initial Blood Glucose Level After 2 hrs.
Setting [6] is: 4 h, 4 hrs, read-out: Percent of Initial Blood Glucose Level After 4 hrs.
[7] abbreviates: 3 hrs, read-out: Percent of Initial Blood Glucose Level After 3 hrs.
Where [8] appears, read: 5 hrs, read-out: Percent of Initial Blood Glucose Level After 5 hrs.

As usually defined, the IC50 is the concentration that gives 50% inhibition. A low value points to inhibition by little substance. The inhibition is the share of the control response that was lost under treatment. Lower therefore signals a weak effect. Regarding `CCCCCOc1ccc(C=C2SC(=S)NC2=O)cc1` [Example 47, 5-[(4-pentoxyphenyl)methylene]-2-thioxo-4-thiazolidinone], the response vs control in vivo at 50 mg/kg stood at 99 ± 14% in experiment [1] (setting [5]) and 76 ± 8% in experiment [1] (setting [6]). The “ability to lower blood glucose levels in mammals” value in experiment [1] was “surprising ability to lower blood glucose levels in mammals”. Further, the “Percent of Initial Blood Glucose Level After 3 hrs.” value in experiment [2] (167 mg/kg) was 74%. In addition, the “Percent of Initial Blood Glucose Level After 5 hrs.” value in experiment [2] (167 mg/kg) is 66%. The response vs control in vivo at 200 mg/kg in experiment [3] (setting [7]) worked out at 82%; in experiment [3] (setting [8]) it was 73%. The compound also had an IC50 in experiment [4] of 5.2 µM. In experiment [4], this compound yielded an inhibition at 4.15 µg/mL (stock) of 60.5%.

Take `CCCCOc1ccc(C=C2SC(=S)NC2=O)cc1OCC` [Example 56, 5-[(3-ethoxy-4-butoxyphenyl)methylene]-2-thioxo-4-thiazolidinone]: in experiment [1] (setting [5]), the response vs control in vivo at 10 mg/kg is 94 ± 4%, the response vs control in vivo at 25 mg/kg came out at 81 ± 8% and the response vs control in vivo at 50 mg/kg was determined as 78 ± 4%. Further, in experiment [1] (setting [6]), the response vs control in vivo at 10 mg/kg is 97 ± 4%, the response vs control in vivo at 25 mg/kg amounted to 75 ± 3% and the response vs control in vivo at 50 mg/kg was determined as 72 ± 3%. In experiment [1], the “ability to lower blood glucose levels in mammals” value is given as “surprising ability to lower blood glucose levels in mammals”. Moreover, in experiment [2] (50 mg/kg), the “Percent of Initial Blood Glucose Level After 3 hrs.” value came out at 79% and the “Percent of Initial Blood Glucose Level After 5 hrs.” value turned out to be 66%. Besides, the response vs control in vivo at 150 mg/kg in experiment [3] (setting [7]) was determined as 79%. The response vs control in vivo at 150 mg/kg in experiment [3] (setting [8]) turned out to be 65%. In experiment [4], this compound had an IC50 of 12.3 µM and an inhibition at 4.15 µg/mL (stock) of 73%. The “ability to inhibit cathepsin D” value in experiment [4] (compared to structurally similar compounds known in the art, in words) is “surprising ability to inhibit cathepsin D levels”.
